The text below walks through data of publication PMC10470491, “Modulation of the functional interfaces between retroviral intasomes and the human nucleosome” (mBio, 2023).

The test system of data set [1] is HIV-1 intasome (vDNA•IN•LEDGF/p75). The data set can be described thus: in vitro HIV-1 concerted integration onto mononucleosome. It is filed as biochemical.
The next data set addresses PFV intasome (Human spumaretrovirus, UniProt P14350). The experiment in a line: biochemical. Format: biochemical, prototype foamy virus (PFV). More on the design: Briefly, PFV IN and its cognate vDNA were mixed, and assembled intasomes were purified by size exclusion chromatography; octamers produced in E. coli. Particulars: for inhibition of PFV integration into MNs: 30 nM FITC PFV intasome, MN, drugs 0–25 µM. As for the experimental part: Integration assays using purified assembled intasomes were performed as followed: either 100 ng of naked DNA or 100 ng of DNA assembled on 100 ng of histone octamers (24 nM final concentration) was incubated with 30 nM final concentration of purified intasome in 100 mM NaCl, 20 mM BTP pH 7, 12.5 mM MgSO4 (for PFV intasome), or in 20 mM HEPES pH 7, 7.5% DMSO, 8% PEG, 10 mM MgCl2, 20 µM ZnCl2, 100 mM NaCl, 5 mM DTT final concentration (for HIV-1 intasome) in a final volume of 40 µL. The mix was then incubated at 37°C for 15 min and 1 h, respectively. Then, reaction was stopped by the addition of 5.5 µL of a mix containing 5% SDS and 0.25 M EDTA and deproteinized with proteinase K (Promega) for 1 h at 37°C. Nucleic acids were then precipitated with 150 µL of ethanol overnight at −20°C. Samples were then spun at top speed for 1 h at 4°C, and the pellets were dried and then resuspended with DNA loading buffer. Integration products were separated on an 8% native polyacrylamide gel.

Another data set deals with histone tails. More on the design: method as in PMID 26503405. As to conditions: ref [18]; cited from earlier work.
In data set [2] the test system is PFV intasome/nucleosome complex. The data set can be described thus: AlphaLISA PFV intasome/nucleosome interaction assay. Format: binding, prototype foamy virus (PFV); human mononucleosome. As for the experimental part: AlphaLISA is a technology particularly suitable for bimolecular inhibitor screening assays using protein-protein interactions with purified recombinant proteins. The AlphaLISA assay development was performed in 96-well 12 area Alphaplate (reference 6052340, PerkinElmer, Waltham, MA, USA) with a final reaction volume of 40 µL. Cross-titration experiments of biotinylated MN (0–50 nM) against DIG-intasome (0–100 nM) were carried out to establish optimal assay concentrations for the binding assay. Ten microliters of each protein were diluted in the binding buffer 50 mM BisTris-propane pH 7, 100 mM NaCl, 0.1% (v/v) Tween-20, 0.1% (w/v) BSA, and 1 mM dithiothreitol. The plate was incubated at RT for 2 h in rotation. Ten microliters of anti-DIG acceptor beads (PerkinElmer, reference AL113) were then added, and after 1 h of incubation at RT with rotation, 10 µL of streptavidin […] (Perkin Elmer, reference 6760002) was mixed to the wells. This established a final concentration of 20 µg/mL for each bead. The plate was then incubated for 1 h at RT in the dark before the AlphaLISA signal was detected using an EnSpire Multimode Plate Reader (PerkinElmer). Negative control with binding buffer or only with one of the complexes was used to control the assay quality. Data were analyzed with GraphPad Prism 5.01 software. To evaluate tolerance for DMSO, the assay was performed as described above with an addition of 0.15–20% (v/v) of DMSO during the binding step. For the competition experiment, increasing concentrations of untagged intasome were titrated out in the 1-nM DIG-intasome/biotinylated nucleosome interaction assay.
For the AlphaLISA screening assay with the NIH OncoSET library, the binding conditions were optimized for use in 384-well plate (Optiplate, reference 6007290, PerkinElmer) with the same concentrations for complexes and beads in a final reaction volume of 20.5 µL (2.5% DMSO final concentration). The screening was first carried out with 25 µM of each compound pre-incubated for 1 h with 1 nM intasome/nucleosome complexes. Compounds were selected as inducing at least 50% decrease of the AlphaLISA signal control condition, and their inhibitory effect was further tested using dose-response curves. For compounds validation, counter select assay was performed using a short DNA fragment carrying a biotin and a DIG tag on each side. The AlphaLISA signal was monitoring using increasing concentrations of the double-tagged DNA, and the selected compounds were tested in optimized conditions at 10 µM. Any compound that causes decreased signal means that it interferes with AlphaLISA readout, and therefore, it is not relevant to this assay.

A further data set deals with mononucleosome (MN). The experiment in a line: histone eviction assay (EMSA / SDS-PAGE). It is filed as biochemical, human. Particulars: 10 µM or increasing concentrations. Background: In EMSA bound probe runs differently from free probe, usually more slowly.
In data set [3] the test system is HIV-1 subtype B virus. The data set can be described thus: qPCR quantification of viral DNA populations in infected PBMCs. It is filed as cell-based.
Data set [4] has as its system Vpr-BLaM containing NL-4.3 or NL-4.3Δenv-VSV-G viruses. Format: cell-based, HIV-1.
Data set [5] has as its system HIV-1 subtype B virus. The experiment in a line: HIV-1 infection assay in PBMCs (HIV-1 RNA in supernatant). Format: cell-based. As to conditions: Human immunodeficiency virus 1, PBMC, read-out: IC50 of HIV-1 replication. As for the experimental part: PBMCs were isolated from blood samples using Ficoll-Hypaque gradient centrifugation. After separation, PBMCs were pelleted by centrifugation. […] Next, PBMCs were harvested (7 min, 400 × g) and resuspended in 500 µL culture medium. […] Then, the medium was removed, and 10 mL of RPMI 1640 was added to wash the cells. The cells were harvested at low speed (400 × g), and the washed-cell pellet was resuspended in 2 mL of supplemented RPMI 1640. The cell suspension was added to wells of a 24-well tissue culture plate and incubated at 37°C. HIV-1 RNA from plasma samples was determined at 24, 48, and 72 h postinfection.

Another data set deals with HIV-1 intasome. Particulars: MN assembled onto natural DO2 sequence.

Read-outs that look alike come from different tables or passages of the source.

In the case of `O=S(=O)(O)c1cc2c(O)c(c1)Cc1cc(S(=O)(=O)O)cc(c1O)Cc1cc(S(=O)(=O)O)cc(c1O)Cc1cc(S(=O)(=O)O)cc(c1O)C2` [CA1], in data set [1] (Table 4, title: in vitro HIV-1 integration inhibition, read-out: Integration IC50), the IC50 was greater than 1000 nM. The “inhibition of PFV integration into MNs” value against PFV intasome is listed as “inefficient in our assay”. The Kd at histone tails is 17.8 to 20.4 µM. In data set [2] (increasing drug concentrations), the “inhibition of intasome/nucleosome association in AS” value is “less efficient in inhibiting the association”.

Regarding `COc1cccc2c1C(=O)c1c(O)c3c(c(O)c1C2=O)C[C@@](O)(C(=O)CO)C[C@@H]3O[C@H]1C[C@H](N)[C@H](O)[C@H](C)O1` [Doxorubicin, doxorubicin], the IC50 is roughly 300 nM in data set [1] (preformed HIV-1 intasome, MN, read-out: IC50 of in vitro HIV-1 integration); less than 1000 nM in data set [1] (preformed HIV-1 intasome, native MN (601), read-out: IC50 of in vitro HIV-1 integration); less than 1000 nM against PFV intasome; 870 ± 40 nM in data set [2] (intasome/nucleosome AS assay, increasing drug concentrations, Fig. 3E); 2 to 20 nM with HIV-1 subtype B virus [5]. Further, the “cytotoxicity” value with PBMC cells is “poor cytotoxicity”. Also, the “histone eviction / MN dissociation” value with mononucleosome (MN) was “full shift of the nucleosomal DNA in addition to a strong MN dissociation”. For the same molecule, the “inhibition of PFV integration into MNs” value against PFV intasome was “able to inhibit PFV integration into MNs”. Further, the “effect on total viral DNA” value in the data set with HIV-1 subtype B virus [3] (20 h postinfection) is recorded as “no effect”. Further, the “effect on integrated DNA” value with HIV-1 subtype B virus [3] (infected PBMCs) is “decreased”. For the same molecule, the “effect on two-LTR circles” value with HIV-1 subtype B virus [3] (infected PBMCs) was “increased”. The “effect on viral fusion / entry” value in [4] is “did not affect this early entry step”. For the same molecule, the “decrease in the AS signal” value in data set [2] (OncoSET screen, 25 µM drug, 1 nM of each partner) is given as “at least 50%”. For the same molecule, in data set [2] (retest at 10 µM, MN), the “effect on the intasome/nucleosome AS signal” value was “strong inhibitory effect”. In addition, the “inhibition of HIV-1 integration into DO2 nucleosome” value in the data set with HIV-1 intasome is given as “as efficient in inhibiting the HIV-1 integration into DO2 nucleosome than onto the 601 nucleosome”.

In general, Kd refers to the concentration at which binding is half-saturated.
